Laboratory results: article PMC9950073, “Alleviation of arthritis through prevention of neutrophil extracellular traps by an orally available inhibitor of protein arginine deiminase 4” (Scientific Reports, 2023)
Converted amounts (≈) assume the structure as drawn.

Columns and labels:
CYP2D6 = target: T1, CYP2D6 (Homo sapiens, UniProt P10635); test: CYP inhibition in human liver microsome, CYP2D6; assay type: in vitro ADME
T1 construct: from tissue; host or cells: human liver microsomes
Method: (§1) CYP inhibition: Human liver microsome (0.1–0.5 mg/mL for various CYPs) and appropriate probe substrates (2.5–20 µM) were incubated in potassium phosphate buffer with or without JBI-589 for 5 min at 37 °C. The reaction was initiated by addition of NADPH (1 mM), incubated at 37 °C for 10 min and quenched (0.5% Formic acid in internal standard (IS) containing ACN). Samples were then centrifuged and taken for LC–MS/MS analysis. Percent change in metabolite formation for each substrate under above conditions using formula: Percent inhibition = [1 − (test area ratio/control area ratio)] *100.

[1] = system: histone H3 citrullination in human neutrophils; test: Citrullination assay in human neutrophils (citrullinated H3 ELISA); assay type: cell-based; conditions: Neutrophil
Source text: All blood samples from healthy donors who participated in this study were obtained after informed consent in accordance with relevant guidelines and regulations given by the ACE Independent ethics committee for Jubilant Biosys Ltd and Office of Clinical Investigations at Boston Children’s Hospital. The ACE Independent ethics committee, Bangalore, approved the use of human whole blood/PBMC/Enriched Subset in Jubilant Biosys Ltd investigations, Drug Controller General of India (DCGI) Reg No. ECR/141/Indt/KA/2013. Briefly, 10 mL K2EDTA vacutainers were used to collect fresh blood from healthy donors (BD vacutainer, Catalog No: BD 367525). A total of 50 ml of blood was taken from a single, healthy human donor. Neutrophils were isolated from human blood using the EasySep Direct Human Neutrophil Isolation Kit, according to the manufacturer's instructions (Stem Cell Technology, Catalog No: 19666). […]
Citrullinated H3 Enzyme linked immunosorbent Assay (ELISA) was performed as per manufacturer’s instructions (Cayman chemicals, Catalog No: 501620). Neutrophils obtained as mentioned above were counted and cell suspension was prepared in complete RPMI media. […] IC50 values were determined by sigmoidal dose–response curve (variable slope) in Graph Pad Prism 5 software.

CYP1A2 = target: T2, CYP1A2 (Homo sapiens, UniProt P05177); test: CYP inhibition in human liver microsome, CYP1A2; assay type: in vitro ADME
T2 construct: from tissue; host or cells: human liver microsomes
T2 sequence (P05177 1-516): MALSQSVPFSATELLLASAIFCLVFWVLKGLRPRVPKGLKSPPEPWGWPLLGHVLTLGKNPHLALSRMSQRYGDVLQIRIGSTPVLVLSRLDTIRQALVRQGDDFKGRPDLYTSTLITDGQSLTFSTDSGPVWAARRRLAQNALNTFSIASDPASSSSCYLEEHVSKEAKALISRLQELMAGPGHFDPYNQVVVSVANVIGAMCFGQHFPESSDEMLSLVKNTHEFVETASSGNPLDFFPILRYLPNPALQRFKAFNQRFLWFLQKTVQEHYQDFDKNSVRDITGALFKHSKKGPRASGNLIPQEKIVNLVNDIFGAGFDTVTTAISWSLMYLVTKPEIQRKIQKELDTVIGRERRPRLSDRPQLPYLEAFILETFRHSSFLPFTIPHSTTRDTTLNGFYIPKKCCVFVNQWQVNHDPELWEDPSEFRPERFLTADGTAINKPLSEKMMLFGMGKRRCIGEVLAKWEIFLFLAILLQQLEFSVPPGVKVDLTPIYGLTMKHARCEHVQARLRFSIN
Method: as §1

human recombinant PAD2 = target: T3, human recombinant PAD2 (Homo sapiens, UniProt Q9Y2J8); test: PAD2 selectivity biochemical assay measuring ammonia release; conditions: 10 semi-log concentrations, highest concentration tested 30 µM
T3 construct: purchased Cayman Chemicals 10785

Solubility = assay type: physicochemical
Source text: Supplement 41598_2023_30246_MOESM1_ESM.docx, table 2: Supplementary Table S2. In vitro ADME parameters of JBI-589 | column: 90

human recombinant PAD6 = target: T4, human recombinant PAD6 (Homo sapiens, UniProt Q6TGC4); test: PAD6 selectivity biochemical assay measuring ammonia release; conditions: 10 semi-log concentrations, highest concentration tested 30 µM
T4 construct: purchased Signal Chem T1065-3
T4 sequence (Q6TGC4 1-694): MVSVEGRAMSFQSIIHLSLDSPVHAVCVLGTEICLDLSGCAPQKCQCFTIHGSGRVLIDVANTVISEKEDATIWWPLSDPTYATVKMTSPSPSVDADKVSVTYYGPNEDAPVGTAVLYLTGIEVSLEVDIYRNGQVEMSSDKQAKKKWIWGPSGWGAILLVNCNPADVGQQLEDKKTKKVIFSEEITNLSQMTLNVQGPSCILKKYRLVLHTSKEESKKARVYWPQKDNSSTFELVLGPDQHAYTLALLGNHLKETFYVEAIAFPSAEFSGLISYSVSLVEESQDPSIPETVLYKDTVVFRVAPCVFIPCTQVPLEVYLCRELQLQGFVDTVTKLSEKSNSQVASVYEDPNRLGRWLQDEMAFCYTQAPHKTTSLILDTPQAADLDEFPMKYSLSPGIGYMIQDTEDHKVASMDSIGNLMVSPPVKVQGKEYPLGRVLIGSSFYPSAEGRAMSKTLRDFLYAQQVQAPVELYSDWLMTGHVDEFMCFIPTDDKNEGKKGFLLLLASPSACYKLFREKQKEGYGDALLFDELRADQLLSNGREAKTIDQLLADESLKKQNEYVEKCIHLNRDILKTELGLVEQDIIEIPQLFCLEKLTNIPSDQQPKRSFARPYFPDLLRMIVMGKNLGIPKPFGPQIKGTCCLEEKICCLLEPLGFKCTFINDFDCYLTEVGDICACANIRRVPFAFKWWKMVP

[2] = predicted from % inhibition, text says major CYPs tested

T1 sequence (P10635 whole entry): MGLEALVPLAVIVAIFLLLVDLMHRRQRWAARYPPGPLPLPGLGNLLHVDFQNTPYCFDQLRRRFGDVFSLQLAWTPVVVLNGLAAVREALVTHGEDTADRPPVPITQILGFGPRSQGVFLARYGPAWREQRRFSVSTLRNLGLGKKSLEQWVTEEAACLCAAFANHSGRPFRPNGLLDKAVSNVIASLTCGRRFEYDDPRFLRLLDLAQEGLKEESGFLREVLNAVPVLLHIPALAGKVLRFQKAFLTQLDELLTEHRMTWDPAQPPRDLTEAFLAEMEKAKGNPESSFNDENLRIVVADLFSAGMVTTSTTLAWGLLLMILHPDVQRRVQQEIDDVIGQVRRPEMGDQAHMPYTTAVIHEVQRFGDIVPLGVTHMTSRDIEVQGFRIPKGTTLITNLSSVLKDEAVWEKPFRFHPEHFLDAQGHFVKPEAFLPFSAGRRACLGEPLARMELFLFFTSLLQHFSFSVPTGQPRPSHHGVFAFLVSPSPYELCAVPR
T3 sequence (Q9Y2J8 whole entry): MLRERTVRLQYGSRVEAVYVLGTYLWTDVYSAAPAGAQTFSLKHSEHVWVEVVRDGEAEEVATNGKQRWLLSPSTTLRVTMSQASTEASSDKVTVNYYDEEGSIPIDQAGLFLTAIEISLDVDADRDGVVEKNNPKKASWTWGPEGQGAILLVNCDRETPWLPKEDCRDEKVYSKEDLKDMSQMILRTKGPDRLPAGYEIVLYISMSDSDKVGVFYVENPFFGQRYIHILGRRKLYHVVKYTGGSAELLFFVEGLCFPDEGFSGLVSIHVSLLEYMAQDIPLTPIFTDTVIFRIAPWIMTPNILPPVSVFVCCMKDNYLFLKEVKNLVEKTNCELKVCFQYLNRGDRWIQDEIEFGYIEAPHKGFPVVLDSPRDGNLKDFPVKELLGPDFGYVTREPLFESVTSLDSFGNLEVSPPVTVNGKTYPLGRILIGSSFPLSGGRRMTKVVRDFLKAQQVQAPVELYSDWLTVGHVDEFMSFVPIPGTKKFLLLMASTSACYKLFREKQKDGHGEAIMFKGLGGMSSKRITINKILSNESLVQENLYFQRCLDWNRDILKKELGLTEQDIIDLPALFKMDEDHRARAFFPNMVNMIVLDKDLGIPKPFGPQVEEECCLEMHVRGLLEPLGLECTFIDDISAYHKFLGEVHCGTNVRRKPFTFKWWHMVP

inhibition at 10 min, 10 µM (CYP2D6; human liver microsomes, 10 µM, human liver microsome, read-out: CYP2D6 inhibition (% inh @10 µM)): < 50%
IC50 (CYP2D6; [2]): > 10000 nM
IC50 ([1]; Fig. 1c, human neutrophils, calcium ionophore, x axis μM): 0.146 µM
EC50 ([1]; human neutrophils induced by 25 µM calcium ionophore, ELISA, read-out: EC50, inhibition of histone H3 citrullination): 146 nM
inhibition at 10 min, 10 µM (CYP1A2; human liver microsomes, 10 µM, human liver microsome, read-out: CYP1A2 inhibition (% inh @10 µM)): < 50%
IC50 (CYP1A2; [2]): > 10000 nM
inhibitory activity against PAD2 (human recombinant PAD2): did not have any inhibitory activity
solubility (Solubility): 90 µM (≈ 43.3 µg/mL)
inhibitory activity against PAD6 (human recombinant PAD6): did not have any inhibitory activity
SMILES: Cc1c(-c2cc3ccccc3n2Cc2ccc(F)cc2)nc2cc(C(=O)N3CCC[C@@H](N)C3)ccn12 [JBI-589, (R)-(3-aminopiperidin-1-yl)(2-(1-(4-fluorobenzyl)-1H-indol-2-yl)-3-methylimidazo[1,2-a]pyridin-7-yl)methanone]
